Assay results from article PMC13289949 (Biochemistry, 2025).
Read-outs that look alike come from different tables or passages of the source.

Columns and labels:
[1] = target: T1, MtbFDTS (Mycobacterium tuberculosis, UniProt P9WG57); assay: MtbFDTS oxidase reaction followed by NADPH consumption; format: biochemical; conditions: for increase in the rate of NADPH consumption: relative to control without ligand, >10× KACT, up to 250 μM ligand; for effect on the oxidase reaction (NADPH oxidation rate), in words: aerobic, no CH2H4folate, ligand up to 250 μM
[2] = target: T1, MtbFDTS; assay: Hydrogen peroxide formation from MtbFDTS oxidase reaction; format: biochemical; conditions: NADPH and 100 μM plumbagin versus NADPH only
[3] = target: FAD-MtbFDTS complex (Mycobacterium tuberculosis, UniProt P9WG57); assay: biochemical; format: binding
Sequence of FAD-MtbFDTS complex (P9WG57 whole entry, one chain of several): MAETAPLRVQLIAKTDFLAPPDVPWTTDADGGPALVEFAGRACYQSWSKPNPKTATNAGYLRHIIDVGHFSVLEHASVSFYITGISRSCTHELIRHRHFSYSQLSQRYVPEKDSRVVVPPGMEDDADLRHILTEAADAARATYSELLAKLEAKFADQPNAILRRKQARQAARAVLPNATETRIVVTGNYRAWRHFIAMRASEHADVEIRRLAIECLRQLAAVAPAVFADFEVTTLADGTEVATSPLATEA

T1 sequence (P9WG57 whole entry): as the sequence (P9WG57 whole entry, one chain of several) above

## 5-hydroxy-2,4-naphthoquinone [plumbagin]
[1]
  increase in the rate of NADPH consumption: 5–10 fold
[2]
  rate increase of hydrogen peroxide formation (initial velocity): ~10 fold

## Nc1nc(=O)c2c([nH]1)NCC(CNc1ccc(C(=O)N[C@@H](CCC(=O)O)C(=O)O)cc1)N2C=O (mixture of isomers) [folinic acid]
[1]
  effect on the oxidase reaction (NADPH oxidation rate), in words: display inhibition
[3]; read-out: apparent Kd, binding to the FAD-MtbFDTS complex
  Kd: 1300 ± 200 nM
[3]; saturating concentration of dUMP, compared with FAD-MtbFDTS
  affinity of folinic acid for the dUMP-FAD-MtbFDTS ternary complex, in words: much higher affinity

## O=c1[nH]c(=O)n([C@H]2C[C@H](O)[C@@H](COP(=O)(O)O)O2)cc1F [5-FdUMP, 5-fluoro-deoxyuridylate]
[3]; compared with dUMP
  affinity to the FAD-MtbFDTS complex, in words: less affinity

## Cc1cn([C@H]2C[C@H](O)[C@@H](COP(=O)(O)O)O2)c(=O)[nH]c1=O [dTMP, 2′-deoxythymidine-5′-monophosphate]
[1]
  effect on the oxidase reaction (NADPH oxidation rate), in words: activated

## O=c1ccn([C@H]2C[C@H](O)[C@@H](COP(=O)(O)O)O2)c(=O)[nH]1 [dUMP, 2′-deoxyuridine-5′-monophosphate]
[1]
  effect on the oxidase reaction (NADPH oxidation rate), in words: increase in rate
[3]
  Kd: 1100 ± 500 nM

## O=C1C=C(O)C(=O)c2ccccc21 [lawsone, 2-hydroxy-1,4-naphthoquinone]
[1]
  increase in the rate of NADPH consumption: 5–10 fold

## CN(Cc1cnc2nc(N)nc(N)c2n1)c1ccc(C(=O)N[C@@H](CCC(=O)O)C(=O)O)cc1 [methotrexate]
[1]
  effect on the oxidase reaction (NADPH oxidation rate), in words: display inhibition
